In one series the test system is HeLa cells. Description: Luciferase plasmid (pCl-Luc) DNA transfection of HeLa cells. The format is cell-based, human. As to conditions: for transfection, comparison of generations G1, G2, G3: pCl-Luc with D/D, 24 h, FIG. 16A. The source says:
(§1) FIG. 15. Comparison of the transfection efficiency of G1,2,3-RL with other commercial transfection reagents including DOTMA/DOPE, Polyethylenimine and Lipofectamine 2000 for DNA delivery. (A) Transfection in HeLa cells without the presence of serum, (B) transfection in HeLa cells with the presence of serum, (C) transfection in Neuro2A cells without the presence of serum and (D) transfection in Neuro2A cells with the presence of serum. Cells transfected with a luciferase-expressing plasmid (pCl-Luc) in the presence of GSCG1,2,3-RL with D/D (measured 24 h after transfection). The luminescence values were normalized by dividing them by the analogous values for cells treated with a D/D DNA complex to generate the % of transfection. Conditions: 1×10^4 cells were transfected with 0.25 μg pCl-Luc for 4 hours without serum or in the presence of 10% serum. Error bars refer to the mean±SEM for experiments carried out in triplicate. […] D/D is DOTMA/DOPE at w/w 1:1.
(§2) FIG. 16. Comparison of the transfection efficiency of dendrimers with different generations (G1, G2 and G3) with different N/P ratios and cationic residues (e.g. KL vs RL) for DNA delivery. (A) Transfection efficiency in HeLa cells, (B) transfection efficiency in Neuro2A cells. Cells transfected with a luciferase-expressing plasmid (pCl-Luc) in the presence of peptide dendrimers with D/D (measured 24 h after transfection). The luminescence values were normalized by dividing them by the analogous values for cells treated with a D/D DNA complex (w/w 1:1, 0.25 μg) to generate the % of transfection. Conditions: 1×10^4 cells were transfected with 0.25 μg pCl-Luc. Error bars refer to the mean±SEM for experiments carried out in triplicate. * denotes p<0.05. D/D is DOTMA/DOPE at w/w 1:1. Generation 2 and generation 3 dendrimers perform better at transfecting both HeLa and Neuro2A cells compared to generation 1 dendrimers.
(§3) Using a third generation peptide dendrimer, GSCG1,2,3-RL, the inventors also compared the transfection efficiency of DNA using this dendrimer to that of commercially available transfection reagents. […]

The test system of another series is Neuro2A cells. The experiment in a line: Luciferase plasmid (pCl-Luc) DNA transfection of Neuro2A cells. The class given is cell-based. To be noted: for transfection, comparison of generations G1, G2, G3: pCl-Luc with D/D, 24 h, FIG. 16B.
Text: as §1, §2, §3

The subject of series [1] is macrophage-polarised primary bone marrow derived monocytes. Description: eGFP mRNA transfection of macrophage-polarised primary mouse bone marrow derived monocytes, flow cytometry. The class given is cell-based. As to conditions: GSCG1,2-RHL NP=0.6:1, GSCG1,2-RL, 3-LR NP=0.16:1, GSCG1,RL, 2-LR NP=8:1, DOTMA:DOPE w/w 10:1, lipid-only DOTMA/DOPE w/w 3.2:1, FIG. 2. How it is done:
BMDM cells were isolated using the StemCell Tech EasySep Mouse Monocyte Isolation Kit from mouse bone marrow cell suspension. The cells were resuspended in complete medium (DMEM+1% glutamax+10% heat inactivated FBS+1% Pen/Strep) enriched with 50 ng/ml murine M-CSF (1:1000 of 50 μg/ml stock) at 1E+6 cells/mi. 2 million cells (i.e. 2 mL) was seeded in each well of 6-well plate(s). The plate was incubated at 37° C. for 4 days. Half media exchange was performed using complete media enriched with […] murine M-CSF and 40 ng/ml murine IL-4. Cells were then harvested the next day (day 5) by washing cells with PBS and a 10 minute incubation with 5 mM EDTA (diluted in PBS) at 37° C. followed by plate tapping and resuspension. […]
Data were collected using a BD LSRFortessa I analyser running […] software (Beckton Dickinson). All collected data were analysed using FlowJo 10.0 software.
Transfection efficiency of macrophage-polarised primary bone marrow derived monocytes using various peptide dendrimer/lipid nanoparticles was assessed and compared to lipid-only nanoparticles (LPX-RNA). Each nanoparticle, with or without dendrimer, included eGFP mRNA to allow analysis of absolute numbers of cells transfected to be assessed by flow cytometry. […]
On the technique in general: A flow cytometer gives signals particle by particle.

The nature of series [2]: Dynamic light scattering: hydrodynamic size and polydispersity index (PDI) of nanoparticles. The class given is physicochemical. Here is the method:
(§4) The hydrodynamic size was measured using the dynamic light scattering (DLS) technique. DLS is a very sensitive, non-invasive method to measure size and size distribution of nanoparticles in a liquid. […] Analysing these intensity fluctuations allows us to calculate the velocity of the Brownian motion. The size of the nanoparticles can be determined by using the Stokes-Einstein relationship. With the latest technology, it can measure nanoparticles smaller than 1 nm.
PDI is used to estimate the average uniformity of a particle solution, The method of cumulants is a standard technique for analysing DLS data on sample polydispersity. PDI is a number calculated from a 2 parameter fit to the correlation data (the cumulants analysis). The cumulants analysis is used to evaluate the autocorrelation function generated by a DLS experiment. The calculation is defined in ISO 13321 and ISO 22412. PDI values greater than 0.7 indicate that the sample has a very broad size distribution and is not suitable for the DLS technique. The calculations for these parameters are defined in the ISO standard document 13321:1996 E and ISO 22412:2008.
as §4, with “Size, zeta potential and polydispersity index (PDI) measurement: The hydrodynamic” for “The hydrodynamic”, “scattering (DLS) technique using the Zetasizer Advance Series—Pro (Malvern Panalytical Ltd, Malvern, UK) according to the manufacturer's instructions. DLS is” for “scattering (DLS) technique. DLS is”
The data obtained with DLS measurements can also be used to calculate the PDI of particle in solution. PDI is used to estimate the average uniformity of a particle solution. The method of cumulants is a standard technique for analysing DLS data on sample polydispersity. PDI is a number calculated from a 2 parameter fit to the correlation data (the cumulants analysis). The cumulants analysis is used to evaluate the autocorrelation function generated by a DLS experiment. The calculation is defined in ISO 13321 and ISO 22412. PDI values greater than 0.7 indicate that the sample has a very broad size distribution and is not suitable for the DLS technique. The calculations for these parameters are defined in the ISO standard document 13321:1996 E and ISO 22412:2008.
To measure the size and PDI, the samples were diluted 16× in 25 mM HEPES buffer (5 μl sample+75 μl buffer). Parameters: reference material: polystyrene latex, dispersant: water, 25° C. The PDI measurements were measured in nanoparticles comprising a dendrimer:nucleic acid NP ratio of 8:1.

The test system of a further series is human THP-1 cells. The experiment in a line: eGFP mRNA transfection of human THP-1 macrophages, flow cytometry. The class given is cell-based. To be noted: GSCG1,2-RL, 3-LR NP=0.16:1, GSCG1-LRLR NP=0.6, GSCG1,2-RHL NP=5:1, GSCG1,2-RF, 3HL NP=0.6:1, RHCG1-R NP=0.6:1, DOTMA:DOPE w/w 10:1, lipid-only w/w 3.2:1, FIG. 3. How it is done: THP-1 cells (a human leukaemia monocytic cell line) were sub-cultured in RPMI (with glutamax)+10% heat inactivated FBS (complete media) at 3E+5 cells/ml and passaged every 3-4 days. For macrophage polarisation 7.5E+6 cells were seeded in T75 flasks in a total of 20 ml complete media containing 5 ng/ml PMA (1:1000 of 5 ug/ml stock). The cells were transferred to the 37° C. incubator for overnight. After 24 hrs, THP-1 cells were washed with complete medium and a fresh flask complete medium (not containing PMA) was overlaid on the cells. After a further 72 hrs, the complete medium was exchanged for fresh complete media containing 20 ng/ml rhlL-4 (1:500 of 10 μg/ml stock). 24 hrs later the cells were harvested by firstly washing the cells with PBS followed by a 5 minute treatment at 37° C. with 5 mM EDTA (diluted in PBS). Cells were spun down at 300 g for 5 minutes and resuspended in a complete medium containing 20 ng/ml rhlL-4 at 2.4E+5 cells/mi. 500 ul of cells were seeded into each well on a 24-well plate and left overnight in the 37° C. incubator.
The medium overlaying the polarised THP-1 cells was aspirated and exchanged with 480 ul/well complete media containing 20 ng/ml rhlL-4. […]
Data were collected using a BD LSRFortessa I analyser running […] software (Beckton Dickinson). All collected data were analysed using FlowJo 10.0 software. […]

Consider 5 substances from patent publication US20260014278A1, “HYBRID PEPTIDE DENDRIMER SYSTEMS AND EXTRAHEPATIC DELIVERY” (NUNTIUS THERAPEUTICS LIMITED, priority 2022, published 2026).

Regarding (KL)2KGSC-NH2 [GSCG1-KL], the “transfection, comparison of generations G1, G2, G3” value with HeLa cells and in the series with Neuro2A cells was “do not transfect” in each case.

In the case of (LR)4(KRL)2KRHC-NH2 [RHCG1-RL, 2-LR], the transfection efficiency in series [1] is given as approximately 50%. Besides, in series [2] (peptide dendrimer, lipid and mRNA complexes, N:P 8:1, DOTMA/DOPE w/w 10:1 to mRNA), the “Polydispersity Index (PDI)” value was 0.109.

As to (R)2KRHC-NH2 [RHCG1-R], the transfection efficiency with human THP-1 cells was 30-35%. Also, the PDI in series [2] (Table 7, first generation dendrimers for mixed dendrimer nanoparticles) turned out to be 0.566.

(RL)2KGSC-NH2 [GSCG1-RL]: the “transfection, comparison of generations G1, G2, G3” value with HeLa cells and in the series with Neuro2A cells was “do not transfect” in each case.

Take (RL)4(KRL)2KGSC-NH2 [GSCG1,2-RL]: the “transfection efficiency in comparison to GSCG1,2-KL” value in the series with HeLa cells (N/P ratio of 10:1 or 20:1, FIG. 16) was “higher transfection efficiency”; with Neuro2A cells (N/P ratio of 20:1, FIG. 16) it was “higher transfection efficiency”.
